# Reference: article PMC7948503, “Optimization of a peptide ligand for the adhesion GPCR ADGRG2 provides a potent tool to explore receptor biology” (The Journal of Biological Chemistry, 2020)
# Non-standard residues stand in square brackets, D forms with d. Residues, ends and D or L forms follow the SMILES beside them. *: point of attachment. FITC = O=C1OC2(c3ccc(O)cc3Oc3cc(O)ccc32)c2ccc(NC(=S)*)cc21; Phe(4-Me) = Cc1ccc(C[C@H](N)C(=O)O)cc1
# Experiments:
# Experiment in all cases: BRET binding of FITC-VPM-p15
# Rluc-ADGRG2-ΔGPS-β I741A = molecular target: T1, Rluc-ADGRG2-ΔGPS-β I741A (Mus musculus, UniProt Q8CJ12, I755A); conditions: mutant I741A
# T1 construct: the entire ECD (including the entire GPS motif) was removed (ADGRG2-ΔGPS-β); expressed in transfected cells; host or cells: HEK293
# T1 sequence (Q8CJ12 618-1009 I755A limits assumed): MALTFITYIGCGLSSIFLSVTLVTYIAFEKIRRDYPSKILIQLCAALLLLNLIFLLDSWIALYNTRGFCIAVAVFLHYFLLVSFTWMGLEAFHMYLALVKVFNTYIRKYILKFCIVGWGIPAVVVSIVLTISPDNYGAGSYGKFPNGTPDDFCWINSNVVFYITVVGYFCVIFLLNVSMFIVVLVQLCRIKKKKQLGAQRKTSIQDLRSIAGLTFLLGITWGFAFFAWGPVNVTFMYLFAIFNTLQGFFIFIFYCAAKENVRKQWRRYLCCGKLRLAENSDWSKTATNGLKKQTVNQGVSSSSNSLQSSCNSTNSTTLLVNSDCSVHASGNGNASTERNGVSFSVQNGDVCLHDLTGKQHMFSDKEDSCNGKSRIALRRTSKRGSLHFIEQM
# Experimental: (§1) The binding capacities of ADGRG2 WT or its mutants for VPM-p15 were determined by BRET assay, which has been used in previous studies ([27], [28], [29]). We fused the N terminus of ADGRG2 with a Rluc fragment and coupled FITC to the C terminus of VPM-p15 to facilitate BRET measurement. We stimulated the HEK293 cells transfected with Rluc-ADGRG2-ΔGPS-β wildtype (WT) or mutants by increasing the concentration of FITC-conjugated VPM-p15, and their binding abilities were determined by fitting the data with the saturation curves.
# (§2) In the detection of binding capacities of ADGRG2 WT or its mutants for VPM-p15, HEK293 cells were transfected with Rluc-ADGRG2-ΔGPS-β or mutants. Transfected cells were stimulated by increasing the concentration of FITC-conjugated VPM-p15. Binding capacities were determined by BRET, EC50 values of ADGRG2 WT and its mutants for binding VPM-p15 were calculated by GraphPad, and data were normalized by EC50 of WT.
# Rluc-ADGRG2-ΔGPS-β M839A = molecular target: T2, Rluc-ADGRG2-ΔGPS-β M839A (Mus musculus, UniProt Q8CJ12, M853A); conditions: mutant M839A
# T2 construct: expressed in transfected cells; host or cells: HEK293
# T2 sequence (Q8CJ12 614-1009 M853A): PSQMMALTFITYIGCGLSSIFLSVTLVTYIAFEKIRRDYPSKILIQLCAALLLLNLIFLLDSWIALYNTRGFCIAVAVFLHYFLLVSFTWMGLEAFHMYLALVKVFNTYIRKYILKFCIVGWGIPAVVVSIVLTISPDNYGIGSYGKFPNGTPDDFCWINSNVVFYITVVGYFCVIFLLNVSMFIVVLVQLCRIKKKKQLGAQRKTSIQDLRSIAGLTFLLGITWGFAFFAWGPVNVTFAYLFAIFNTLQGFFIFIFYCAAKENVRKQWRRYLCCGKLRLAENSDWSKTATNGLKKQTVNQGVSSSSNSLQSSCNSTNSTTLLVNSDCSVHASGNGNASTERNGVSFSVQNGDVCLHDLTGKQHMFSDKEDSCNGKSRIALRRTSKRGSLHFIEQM
# Experimental: as §1, §2
# Rluc-ADGRG2-ΔGPS-β V762A = molecular target: T3, Rluc-ADGRG2-ΔGPS-β V762A (Mus musculus, UniProt Q8CJ12, V776A); conditions: mutant V762A
# T3 construct: the entire ECD (including the entire GPS motif) was removed (ADGRG2-ΔGPS-β); expressed in transfected cells; host or cells: HEK293
# T3 sequence (Q8CJ12 618-1009 V776A limits assumed): as the sequence (Q8CJ12 618-1009 I755A limits assumed) above, with A138I, V159A counted along it
# Experimental: as §1, §2
# Rluc-ADGRG2-ΔGPS-β L683A = molecular target: T4, Rluc-ADGRG2-ΔGPS-β L683A (Mus musculus, UniProt Q8CJ12, L697A); conditions: mutant L683A
# T4 construct: the entire ECD (including the entire GPS motif) was removed (ADGRG2-ΔGPS-β); expressed in transfected cells; host or cells: HEK293
# T4 sequence (Q8CJ12 618-1009 L697A limits assumed): as the sequence (Q8CJ12 618-1009 I755A limits assumed) above, with L80A, A138I counted along it
# Experimental: as §1, §2
# Rluc-ADGRG2-ΔGPS-β S760A = molecular target: T5, Rluc-ADGRG2-ΔGPS-β S760A (Mus musculus, UniProt Q8CJ12, S774A); conditions: mutant S760A
# T5 construct: the entire ECD (including the entire GPS motif) was removed (ADGRG2-ΔGPS-β); expressed in transfected cells; host or cells: HEK293
# T5 sequence (Q8CJ12 618-1009 S774A limits assumed): as the sequence (Q8CJ12 618-1009 I755A limits assumed) above, with A138I, S157A counted along it
# Experimental: as §1, §2
# Rluc-ADGRG2-ΔGPS-β T610A = molecular target: T6, Rluc-ADGRG2-ΔGPS-β T610A (Mus musculus, UniProt Q8CJ12, T624A); conditions: mutant T610A
# T6 construct: the entire ECD (including the entire GPS motif) was removed (ADGRG2-ΔGPS-β); expressed in transfected cells; host or cells: HEK293
# T6 sequence (Q8CJ12 618-1009 T624A limits assumed): as the sequence (Q8CJ12 618-1009 I755A limits assumed) above, with T7A, A138I counted along it
# Experimental: as §1, §2
# Rluc-ADGRG2-ΔGPS-β Y611A = molecular target: T7, Rluc-ADGRG2-ΔGPS-β Y611A (Mus musculus, UniProt Q8CJ12, Y625A); conditions: mutant Y611A
# T7 construct: the entire ECD (including the entire GPS motif) was removed (ADGRG2-ΔGPS-β); expressed in transfected cells; host or cells: HEK293
# T7 sequence (Q8CJ12 618-1009 Y625A limits assumed): as the sequence (Q8CJ12 618-1009 I755A limits assumed) above, with Y8A, A138I counted along it
# Experimental: as §1, §2
# Rluc-ADGRG2-ΔGPS-β F671A = molecular target: T8, Rluc-ADGRG2-ΔGPS-β F671A (Mus musculus, UniProt Q8CJ12, F685A); conditions: mutant F671A
# T8 construct: the entire ECD (including the entire GPS motif) was removed (ADGRG2-ΔGPS-β); expressed in transfected cells; host or cells: HEK293
# T8 sequence (Q8CJ12 618-1009 F685A limits assumed): as the sequence (Q8CJ12 618-1009 I755A limits assumed) above, with F68A, A138I counted along it
# Experimental: as §1, §2
# Rluc-ADGRG2-ΔGPS-β L679A = molecular target: T9, Rluc-ADGRG2-ΔGPS-β L679A (Mus musculus, UniProt Q8CJ12, L693A); conditions: mutant L679A
# T9 construct: the entire ECD (including the entire GPS motif) was removed (ADGRG2-ΔGPS-β); expressed in transfected cells; host or cells: HEK293
# T9 sequence (Q8CJ12 618-1009 L693A limits assumed): as the sequence (Q8CJ12 618-1009 I755A limits assumed) above, with L76A, A138I counted along it
# Experimental: as §1, §2
# Rluc-ADGRG2-ΔGPS-β F826A = molecular target: T10, Rluc-ADGRG2-ΔGPS-β F826A (Mus musculus, UniProt Q8CJ12, F840A); conditions: mutant F826A
# T10 construct: expressed in transfected cells; host or cells: HEK293
# T10 sequence (Q8CJ12 614-1009 F840A): as the sequence (Q8CJ12 614-1009 M853A) above, with F227A, A240M counted along it
# Experimental: as §1, §2
# Rluc-ADGRG2-ΔGPS-β Y666A = molecular target: T11, Rluc-ADGRG2-ΔGPS-β Y666A (Mus musculus, UniProt Q8CJ12, Y680A); conditions: mutant Y666A
# T11 construct: the entire ECD (including the entire GPS motif) was removed (ADGRG2-ΔGPS-β); expressed in transfected cells; host or cells: HEK293
# T11 sequence (Q8CJ12 618-1009 Y680A limits assumed): as the sequence (Q8CJ12 618-1009 I755A limits assumed) above, with Y63A, A138I counted along it
# Experimental: as §1, §2
# Rluc-ADGRG2-ΔGPS-β I844A = molecular target: T12, Rluc-ADGRG2-ΔGPS-β I844A (Mus musculus, UniProt Q8CJ12, I858A); conditions: mutant I844A
# T12 construct: expressed in transfected cells; host or cells: HEK293
# T12 sequence (Q8CJ12 614-1009 I858A): as the sequence (Q8CJ12 614-1009 M853A) above, with A240M, I245A counted along it
# Experimental: as §1, §2
# Rluc-ADGRG2-ΔGPS-β V834A = molecular target: T13, Rluc-ADGRG2-ΔGPS-β V834A (Mus musculus, UniProt Q8CJ12, V848A); conditions: mutant V834A
# T13 construct: expressed in transfected cells; host or cells: HEK293
# T13 sequence (Q8CJ12 614-1009 V848A): as the sequence (Q8CJ12 614-1009 M853A) above, with V235A, A240M counted along it
# Experimental: as §1, §2
# Rluc-ADGRG2-ΔGPS-β I730A = molecular target: T14, Rluc-ADGRG2-ΔGPS-β I730A (Mus musculus, UniProt Q8CJ12, I744A); conditions: mutant I730A
# T14 construct: the entire ECD (including the entire GPS motif) was removed (ADGRG2-ΔGPS-β); expressed in transfected cells; host or cells: HEK293
# T14 sequence (Q8CJ12 618-1009 I744A limits assumed): as the sequence (Q8CJ12 618-1009 I755A limits assumed) above, with I127A, A138I counted along it
# Experimental: as §1, §2
# Rluc-ADGRG2-ΔGPS-β F747A = molecular target: T15, Rluc-ADGRG2-ΔGPS-β F747A (Mus musculus, UniProt Q8CJ12, F761A); conditions: mutant F747A
# T15 construct: the entire ECD (including the entire GPS motif) was removed (ADGRG2-ΔGPS-β); expressed in transfected cells; host or cells: HEK293
# T15 sequence (Q8CJ12 618-1009 F761A limits assumed): as the sequence (Q8CJ12 618-1009 I755A limits assumed) above, with A138I, F144A counted along it
# Experimental: as §1, §2
# Rluc-ADGRG2-ΔGPS-β I663A = molecular target: T16, Rluc-ADGRG2-ΔGPS-β I663A (Mus musculus, UniProt Q8CJ12, I677A); conditions: mutant I663A
# T16 construct: the entire ECD (including the entire GPS motif) was removed (ADGRG2-ΔGPS-β); expressed in transfected cells; host or cells: HEK293
# T16 sequence (Q8CJ12 618-1009 I677A limits assumed): as the sequence (Q8CJ12 618-1009 I755A limits assumed) above, with I60A, A138I counted along it
# Experimental: as §1, §2
# Rluc-ADGRG2-ΔGPS-β L665A = molecular target: T17, Rluc-ADGRG2-ΔGPS-β L665A (Mus musculus, UniProt Q8CJ12, L679A); conditions: mutant L665A
# T17 construct: the entire ECD (including the entire GPS motif) was removed (ADGRG2-ΔGPS-β); expressed in transfected cells; host or cells: HEK293
# T17 sequence (Q8CJ12 618-1009 L679A limits assumed): as the sequence (Q8CJ12 618-1009 I755A limits assumed) above, with L62A, A138I counted along it
# Experimental: as §1, §2
# Rluc-ADGRG2-ΔGPS-β V836A = molecular target: T18, Rluc-ADGRG2-ΔGPS-β V836A (Mus musculus, UniProt Q8CJ12, V850A); conditions: mutant V836A
# T18 construct: expressed in transfected cells; host or cells: HEK293
# T18 sequence (Q8CJ12 614-1009 V850A): as the sequence (Q8CJ12 614-1009 M853A) above, with V237A, A240M counted along it
# Experimental: as §1, §2
# [1] = Kd(mutated ADGRG2-ΔGPS-β)/Kd(WT)
structure (smiles),measurement,setting,value
CC[C@H](C)[C@H](NC(=O)CNC(=O)[C@H](Cc1ccc(C)cc1)NC(=O)[C@H](CO)NC(=O)[C@@H](N)C(C)C)C(=O)N[C@@H](CC(C)C)C(=O)N[C@@H](CC(C)C)C(=O)N[C@@H](CC(=O)O)C(=O)N[C@@H](CC(C)C)C(=O)N[C@@H](CO)C(=O)N[C@@H](CCCNC(=N)N)C(=O)N[C@H](C(=O)N[C@@H](CO)C(=O)N[C@@H](CC(C)C)C(=O)N1CCC[C@H]1C(=O)N[C@@H](CCCCNC(=S)Nc1ccc2c(c1)C(=O)OC21c2ccc(O)cc2Oc2cc(O)ccc21)C(=O)O)[C@@H](C)O [FITC-VPM-p15] (H-VS[Phe(4-Me)]GILLDLSRTSLPK(FITC)-OH; N-terminus and C-terminus assumed),Fmut,Rluc-ADGRG2-ΔGPS-β I741A; [1],0.715
same,Bmax,Rluc-ADGRG2-ΔGPS-β I741A; binding Bmax (BRET),0.775±0.093
same,Fmut,Rluc-ADGRG2-ΔGPS-β M839A; [1],0.957
same,Bmax,Rluc-ADGRG2-ΔGPS-β M839A; binding Bmax (BRET),0.764±0.008
same,Fmut,Rluc-ADGRG2-ΔGPS-β V762A; [1],1.268
same,Bmax,Rluc-ADGRG2-ΔGPS-β V762A; binding Bmax (BRET),0.798±0.021
same,Fmut,Rluc-ADGRG2-ΔGPS-β L683A; [1],1.240
same,Bmax,Rluc-ADGRG2-ΔGPS-β L683A; binding Bmax (BRET),0.7887±0.022
same,Fmut,Rluc-ADGRG2-ΔGPS-β S760A; [1],1.444
same,Bmax,Rluc-ADGRG2-ΔGPS-β S760A; binding Bmax (BRET),0.716±0.011
same,Fmut,Rluc-ADGRG2-ΔGPS-β T610A; [1],1.197
same,Bmax,Rluc-ADGRG2-ΔGPS-β T610A; binding Bmax (BRET),0.8072±0.024
same,Fmut,Rluc-ADGRG2-ΔGPS-β Y611A; [1],0.761
same,Bmax,Rluc-ADGRG2-ΔGPS-β Y611A; binding Bmax (BRET),0.7912±0.020
same,Fmut,Rluc-ADGRG2-ΔGPS-β F671A; [1],0.940
same,Bmax,Rluc-ADGRG2-ΔGPS-β F671A; binding Bmax (BRET),0.833±0.050
same,Fmut,Rluc-ADGRG2-ΔGPS-β L679A; [1],1.242
same,Bmax,Rluc-ADGRG2-ΔGPS-β L679A; binding Bmax (BRET),0.7804±0.017
same,Fmut,Rluc-ADGRG2-ΔGPS-β F826A; [1],1.248
same,Bmax,Rluc-ADGRG2-ΔGPS-β F826A; binding Bmax (BRET),0.734±0.035
same,Fmut,Rluc-ADGRG2-ΔGPS-β Y666A; [1],0.895
same,Bmax,Rluc-ADGRG2-ΔGPS-β Y666A; binding Bmax (BRET),0.809±0.029
same,Fmut,Rluc-ADGRG2-ΔGPS-β I844A; [1],1.640
same,Bmax,Rluc-ADGRG2-ΔGPS-β I844A; binding Bmax (BRET),0.729±0.093
same,Fmut,Rluc-ADGRG2-ΔGPS-β V834A; [1],1.196
same,Bmax,Rluc-ADGRG2-ΔGPS-β V834A; binding Bmax (BRET),0.789±0.016
same,Fmut,Rluc-ADGRG2-ΔGPS-β I730A; [1],1.281
same,Bmax,Rluc-ADGRG2-ΔGPS-β I730A; binding Bmax (BRET),0.7950±0.031
same,Fmut,Rluc-ADGRG2-ΔGPS-β F747A; [1],0.811
same,Bmax,Rluc-ADGRG2-ΔGPS-β F747A; binding Bmax (BRET),0.813±0.041
same,Fmut,Rluc-ADGRG2-ΔGPS-β I663A; [1],0.825
same,Bmax,Rluc-ADGRG2-ΔGPS-β I663A; binding Bmax (BRET),0.814±0.043
same,Fmut,Rluc-ADGRG2-ΔGPS-β L665A; [1],0.850
same,Bmax,Rluc-ADGRG2-ΔGPS-β L665A; binding Bmax (BRET),0.799±0.012
same,Fmut,Rluc-ADGRG2-ΔGPS-β V836A; [1],1.315
same,Bmax,Rluc-ADGRG2-ΔGPS-β V836A; binding Bmax (BRET),0.775±0.030
